Results: patent publication US20160002248A1, “GLS1 INHIBITORS FOR TREATING DISEASE” (Board of Regents, The University of Texas System, priority 2014, published 2016)

What was measured:
[1] = target: T1, purified recombinant human GAC (GLS1) (Homo sapiens, UniProt O94925); assay: GLS1 Enzymatic Activity Assay (dual-coupled enzymatic assay); format: biochemical
T1 sequence (O94925 55-598 isoform O94925-3 limits assumed): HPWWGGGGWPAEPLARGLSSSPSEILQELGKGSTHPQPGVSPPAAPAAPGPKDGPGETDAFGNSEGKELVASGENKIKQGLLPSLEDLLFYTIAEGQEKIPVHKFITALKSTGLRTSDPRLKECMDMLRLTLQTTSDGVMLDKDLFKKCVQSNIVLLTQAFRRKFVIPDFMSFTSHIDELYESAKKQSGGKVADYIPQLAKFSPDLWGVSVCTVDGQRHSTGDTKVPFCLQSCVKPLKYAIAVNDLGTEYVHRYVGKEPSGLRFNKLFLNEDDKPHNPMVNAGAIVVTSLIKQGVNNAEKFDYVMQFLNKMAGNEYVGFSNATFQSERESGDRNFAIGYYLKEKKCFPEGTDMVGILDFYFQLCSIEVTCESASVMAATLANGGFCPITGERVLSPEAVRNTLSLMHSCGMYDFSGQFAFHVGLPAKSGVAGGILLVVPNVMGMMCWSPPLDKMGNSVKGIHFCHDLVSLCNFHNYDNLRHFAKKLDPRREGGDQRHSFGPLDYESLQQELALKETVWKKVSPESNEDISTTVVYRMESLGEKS
How it was run: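 Recombinant human GAC (2 nM) preincubated with 50 mM potassium phosphate, then inhibitor (10 min each, RT); 1 mM glutamine, pH 7.4 Hepes buffer, 1% DMSO. Glutamate coupled via glutamate oxidase/HRP to resorufin (Ex 530/Em 590), kinetic or 20-min endpoint; IC50 by four-parameter logistic fit.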

[2] = test system: A549 cells; assay: Proliferation Assay (A549 cell viability, Cell Titer Fluor); format: cell-based; settings: Homo sapiens, 72 hours
How it was run: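 Seed A549 at 1000 cells/well and culture 24 h. Add compound (final DMSO 0.5%) and incubate 72 h at 37 °C. Add Cell Titer Fluor, mix 15 min, incubate 30 min, read fluorescence and fit EC50 by four-parameter logistic.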

Row | Structure (SMILES) | IC50 [1] | EC50 [2]
1 | O=C(NCc1cc(C(F)(F)F)ccn1)c1cn(CCCCc2cc3cc(-c4ccccc4F)[nH]c3nn2)nn1 [Example 191] | < 0.1 µM | 0.1 to 0.5 µM
2 | O=C(NCc1ccc(C(F)(F)F)cn1)c1cn(CCCCc2cc3cc(-c4ccccc4F)[nH]c3nn2)nn1 [Example 193, 1-(4-[6-(2-fluorophenyl)-7H-pyrrolo[2,3-c]pyridazin-3-yl]butyl}-N-{[5-(trifluoromethyl)pyridin-2-yl]methyl}-1H-1,2,3-triazole-4-carboxamide] | < 0.1 µM | 0.1 to 0.5 µM
3 | CC(C)(C)OC(=O)N1CC(c2cc3cc(CCCCn4cc(C(=O)NCc5cc(C(F)(F)F)ccn5)nn4)nnc3[nH]2)C1 [Example 194, tert-butyl 3-(3-{4-[4-({[4-(trifluoromethyl)pyridin-2-yl]methyl}carbamoyl)-1H-1,2,3-triazol-1-yl]butyl}-7H-pyrrolo[2,3-c]pyridazin-6-yl)azetidine-1-carboxylate] | < 0.1 µM | < 0.1 µM
4 | Cc1ccc(CNC(=O)c2cn(CCCCc3cc4c(C5=CCOCC5)c(C5CC5)[nH]c4nn3)nn2)cn1 [Example 196, 1-{4-[6-cyclopropyl-5-(3,6-dihydro-2H-pyran-4-yl)-7H-pyrrolo[2,3-c]pyridazin-3-yl]butyl}-N-[(6-mcthylpyridin-3-yl)methyl]-1H-1,2,3-triazole-4-carboxamide] | < 0.1 µM | 0.1 to 0.5 µM
5 | CC(C)OC(=O)N1CC(c2cc3cc(CCCCn4cc(C(=O)NCc5cc(C(F)(F)F)ccn5)nn4)nnc3[nH]2)C1 [Example 200, propan-2-yl 3-(3-{4-[4-({[4-(trifluoromethyl)pyridin-2-yl]methyl}carbamoyl)-1H-1,2,3-triazol-1-yl]butyl}-7H-pyrrolo[2,3-c]pyridazin-6-yl)azetidine-1-carboxylate] | < 0.1 µM | 0.1 to 0.5 µM
6 | CC(C)(C)OC(=O)N1CC(c2cc3cc(CCCCn4cc(C(=O)NCc5ccc(C(F)(F)F)cn5)nn4)nnc3[nH]2)C1 [Example 201, tert-butyl 3-(3-{4-[4-({[5-(trifluoromethyl)pyridin-2-yl]methyl)carbamoyl)-1H-1,2,3-triazol-1-yl]butyl}-7H-pyrrolo[2,3-c]pyridazin-6-yl)azetidine-1-carboxylate] | < 0.1 µM | 0.1 to 0.5 µM
7 | O=C(NCc1cccc(OC(F)(F)F)c1)c1cn(CCCCc2cc3cc(-c4ccccc4F)[nH]c3nn2)nn1 [Example 204, 1-{4-[6-(2-fluorophenyl)-7H-pyrrolo[2,3-c]pyridazin-3-yl]butyl}-N-{[3-(trifluoromethoxy)phenyl]methyl}-1H-1,2,3-triazole-4-carboxamide] | < 0.1 µM | 0.5 to 5 µM
8 | CC(C)OC(=O)N1CC(c2cc3cc(CCCCn4cc(C(=O)NCc5ccc(C(F)(F)F)cn5)nn4)nnc3[nH]2)C1 [Example 206, propan-2-yl 3-(3-{4-[4-({[5-(trifluoromethyl)pyridin-2-yl]methyl}carbamoyl)-1H-1,2,3-triazol-1-yl]butyl}-7H-pyrrolo[2,3-c]pyridazin-6-yl)azetidine-1-carboxylate] | < 0.1 µM | 0.1 to 0.5 µM

Other lines, results leading:

Row | IC50 [1] | EC50 [2] | Structure (SMILES)
9 | < 0.1 µM | < 0.1 µM | O=C(NCc1cncc(C(F)(F)F)c1)c1cn(CCCCc2cc3c(-c4ccoc4)c(C4CC4)[nH]c3nn2)nn1 [Example 189, 1-{4-[6-cyclopropyl-5-(furan-3-yl)-7H-pyrrolo[2,3-c]pyridazin-3-yl]butyl}-N-{[5-(trifluoromethyl)pyridin-3-yl]methyl}-1H-1,2,3-triazole-4-carboxamide]
10 | < 0.1 µM | < 0.1 µM | Cc1ccc(CNC(=O)c2cn(CCCCc3cc4cc(-c5ccccc5F)[nH]c4nn3)nn2)cn1 [Example 190, 1-{4-[6-(2-fluorophenyl)-7H-pyrrolo[2,3-c]pyridazin-3-yl]butyl}-N-[(6-methylpyridin-3-yl)methyl]-1H-1,2,3-triazole-4-carboxamide]
11 | < 0.1 µM | < 0.1 µM | CC(C)(C)C(=O)N1CC(c2cc3cc(CCCCn4cc(C(=O)NCc5cc(OC(F)(F)F)ccc5F)nn4)nnc3[nH]2)C1 [Example 192, 1-(4-(6-[1-(2,2-dimethylpropanoyl)azetidin-3-yl]-7H-pyrrolo[2,3-c]pyridazin-3-yl}butyl)-N-{[2-fluoro-5-(trifluoromethoxy)phenyl]methyl}-1H-1,2,3-triazole-4-carboxamide]
12 | < 0.1 µM | < 0.1 µM | O=C(NCc1cccc(OC(F)(F)F)c1)c1cn(CCCCc2cc3c(C4=CCOCC4)c(C4CC4)[nH]c3nn2)nn1 [Example 195, 1-{4-[6-cyclopropyl-5-(3,6-dihydro-2H-pyran-4-yl)-7H-pyrrolo[2,3-c]pyridazin-3-yl]butyl}-N-{[3-(trifluoromethoxy)phenyl]methyl}-1H-1,2,3-triazole-4-carboxamide]
13 | < 0.1 µM | < 0.1 µM | CC(C)(C)OC(=O)N1CC=C(c2c(C3CC3)[nH]c3nnc(CCCCn4cc(C(=O)NCc5cccc(OC(F)(F)F)c5)nn4)cc23)CC1 [Example 197, tert-butyl 4-(6-cyclopropyl-3-{4-[4-({[3-(trifluoromethoxy)phenyl]methyl}carbamoyl)-1H-1,2,3-triazol-1-yl]butyl}-7H-pyrrolo[2,3-c]pyridazin-5-yl)-1,2,3,6-tetrahydropyridine-1-carboxylate]
14 | < 0.1 µM | 0.5 to 5 µM | Cc1ccc(CNC(=O)c2cn(CCCCc3cc4c(C5=CCN(C(=O)OC(C)(C)C)CC5)c(C5CC5)[nH]c4nn3)nn2)cn1 [Example 198, tert-butyl 4-(6-cyclopropyl-3-[4-(4-{[(6-methylpyridin-3-yl)methyl]carbamoyl}-1H-1,2,3-triazol-1-yl)butyl]-7H-pyrrolo[2,3-c]pyridazin-5-yl}-1,2,3,6-tetrahydropyridine-1-carboxylate]
15 | < 0.1 µM | 0.1 to 0.5 µM | Cc1ccc(CNC(=O)c2cn(CCCCc3cc4cc(-c5cccc(F)c5)[nH]c4nn3)nn2)cn1 [Example 202, 1-{4-[6-(3-fluorophenyl)-7H-pyrrolo[2,3-c]pyridazin-3-yl]butyl}-N-[(6-methylpyridin-3-yl)methyl]-1H-1,2,3-triazole-4-carboxamide]
16 | < 0.1 µM | 0.1 to 0.5 µM | Cc1ccc(CNC(=O)c2cn(CCCCc3cc4cc(-c5cccc(C(F)(F)F)c5)[nH]c4nn3)nn2)cn1 [Example 203, N-[(6-methylpyridin-3-yl)methyl]-1-(4-{6-[3-(trifluoromethyl)phenyl]-7H-pyrrolo[2,3-c]pyridazin-3-yl}butyl)-1H-1,2,3-triazole-4-carboxamide]
17 | < 0.1 µM | 0.1 to 0.5 µM | O=C(NCc1cc(OC(F)(F)F)ccc1F)c1cn(CCCCc2cc3cc(-c4ccccc4F)[nH]c3nn2)nn1 [Example 205, N-{[2-fluoro-5-(trifluoromethoxy)phenyl]methyl}-1-(4-[6-(2-fluorophenyl)-7H-pyrrolo[2,3-c]pyridazin-3-yl]butyl)-1H-1,2,3-triazole-4-carboxamide]
18 | < 0.1 µM | 0.1 to 0.5 µM | O=C(NCc1ccc(C(F)(F)F)nc1)c1cn(CCCCc2cc3c(C4CC4)c(C4CC4)[nH]c3nn2)nn1 [Example 207, 1-(4-{5,6-dicyclopropyl-7H-pyrrolo[2,3-c]pyridazin-3-yl}butyl)-N-{[6-(trifluoromethyl)pyridin-3-yl]methyl}-1H-1,2,3-triazole-4-carboxamide]
